Columns and labels:
[1] = biological target: T1, human neutrophil elastase (Homo sapiens, UniProt P08246); assay: SDS PAGE of recombinant human neutrophil elastase treated with cysteamine and derivatives; conditions: FIG. 3; 2.5 μg NE with 2.5 or 5 μg compound, 1 h at 37° C., 8-16% Tris-Glycine SDS gel
T1 sequence (P08246 30-267): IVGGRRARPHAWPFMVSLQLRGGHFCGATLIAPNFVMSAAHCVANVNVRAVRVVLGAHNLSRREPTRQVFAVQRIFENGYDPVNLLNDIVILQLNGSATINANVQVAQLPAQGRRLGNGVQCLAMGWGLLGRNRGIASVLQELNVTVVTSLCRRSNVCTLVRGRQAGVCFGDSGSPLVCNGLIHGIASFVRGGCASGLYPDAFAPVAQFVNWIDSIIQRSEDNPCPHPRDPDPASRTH
Protocol: FIG. 3: The banding pattern and relative staining intensity of recombinant human neutrophil elastase is altered by the addition of cysteamine bitartrate and cysteamine free base. […] This 8-16% gradient Tri-Glycine SDS gel is loaded with a molecular weight marker and: 1. Recombinant human neutrophil elastase [2.5 μg total]; 2. Recombinant human neutrophil elastase [2.5 μg total] and cysteamine bitartrate [2.5 μg total]; 3. Recombinant human neutrophil elastase [2.5 μg total] and cysteamine bitartrate [5 μg total]; 4. Recombinant human neutrophil elastase [2.5 μg total] and cysteamine free base [2.5 μg total]; 5. Recombinant human neutrophil elastase [2.5 μg total] and cysteamine free base [5 μg total]; 6. Recombinant human neutrophil elastase [2.5 μg total] and cystamine dihydrochloride [2.5 μg total]; 7. Recombinant human neutrophil elastase [2.5 μg total] and cystamine dihydrochloride [5 μg total].
Recombinant proteins were treated with or without cysteamine and its derivatives at the concentrations stated in the figures below for 1 h at 37° C. prior to addition of 2× sample buffer and electrophoretic separation on pre-cast 8-16% tris-glycine SDS polyacrylamide gradient gel (Life Technologies) under a constant voltage of 120V in tris-glycine running buffer until the dye front reached the end of the gel. Samples were not heated prior to loading to minimize denaturation of disulphide bonds on the denaturing gel. Precision Plus (Bio-Rad) prestained protein standards were used alongside samples. After electrophoresis gels were carefully removed from the plastic cassettes and washed in sterile distilled water to remove SDS 3× for 5 min. Protein bands were visualized using coomassie-based Simply Blue™ Safe Stain (Life Technologies) staining for 1 h at room temperature. The gel was washed overnight in sterile distilled water, and for a further hour in fresh water prior to photographing.

[2] = biological target: T1, human neutrophil elastase; assay: Neutrophil Elastase Inhibitor Screening Kit (Sigma MAK213), fluorometric; type: biochemical; parameters: purchased Sigma-Aldrich MAK213; conditions: for effect on human neutrophil elastase activity measured fluorometrically: FIG. 2, result in words; for Relative inhibition of NE activity (%): 30 min, 37° C.
Protocol: Neutrophil Elastase Inhibitor Screening Kit is available from Sigma-Aldrich, catalogue number MAK213. This kit measures neutrophil elastase activity by detecting the hydrolysis and release of a fluorescent product. It allows for the screening of unknown substances for inhibitory activity and compares with a positive inhibitor control. Cysteamine free base, cysteamine bitartrate, and cystamine dihydrochloride were prepared in the assay buffer provided at four times the final testing concentration and combined with enzyme and substrate as appropriate and as defined in the full protocol. Samples were prepared in 96 well microtiter plates with black well walls. Background fluorescence can be determined by omitting the neutrophil elastase from a sample blank control. Fluorescence was measured at 400ex/505em nm on a Biotek Synergy plate reader over 30 min at an incubation temperature of 37° C. Relative inhibition is determined by the following equations: Slope=(Fluorescence 2−Fluorescence 1)/(Time 2−Time 1)=delta fluorescence/minute % Relative Inhibition=((SlopeEC−SlopeSM)/SlopeEC))×100 Where: SlopeSM=the slope of the sample inhibitor (cysteamine and derivatives) & SlopeEC=the slope of the Enzyme control.

Row | banding pattern and relative staining intensity of recombinant human neutrophil elastase [1] | SMILES | effect on human neutrophil elastase activity measured fluorometrically [2] | Relative inhibition of NE activity (%) ([2]; Cysteamine bitartrate concentration 20 μg/ml) | Relative inhibition of NE activity (%) ([2]; Cysteamine bitartrate concentration 200 μg/ml) | Relative inhibition of NE activity (%) ([2]; Cysteamine bitartrate concentration 2000 μg/ml)
1 | less of an effect | Cl.Cl.NCCSSCCN [Cystamine dihydrochloride, cystamine dihydrochloride] | minimal effect |  |  | 
2 | altered | NCCS [cysteamine free base, NH2—CH2—CH2—SH] | effected human neutrophil elastase activity |  |  | 

Row | SMILES | banding pattern and relative staining intensity of recombinant human neutrophil elastase [1] | effect on human neutrophil elastase activity measured fluorometrically [2] | Relative inhibition of NE activity (%) ([2]; Cysteamine bitartrate concentration 20 μg/ml) | Relative inhibition of NE activity (%) ([2]; Cysteamine bitartrate concentration 200 μg/ml) | Relative inhibition of NE activity (%) ([2]; Cysteamine bitartrate concentration 2000 μg/ml)
3 | NCCS.O=C(O)C(O)C(O)C(=O)O (stereo not drawn) [Cysteamine bitartrate, cysteamine bitartrate] | altered | effected human neutrophil elastase activity | 12.526% | 30.689% | 86.639%

— patent US20180344671A1, “Cysteamine as Neutrophil Elastase Inhibitor” (Novabiotics Limited, priority 2017, published 2018)
